Source: article PMC13051451, “A Charge-Reversal Point Mutation Completely Depletes Flavin Chromophore from European Robin Cryptochrome 4a Protein” (The Journal of Physical Chemistry Letters, 2026)

Assays:
[1] = target: T1, European robin Cryptochrome 4a (ErCry4a) (Erithacus rubecula, UniProt A0A2I4SZI9, R356E); experiment: native electrospray mass spectrometry; UV-vis absorption; assay type: binding; conditions: co-purified FAD, noncovalent; 20 uM protein, 150 mM ammonium acetate, pH 8; no bound FAD detected (non-binder)
T1 construct: anion exchange purified; monomer with minor dimer
T1 sequence (A0A2I4SZI9 entry or part of it R356E): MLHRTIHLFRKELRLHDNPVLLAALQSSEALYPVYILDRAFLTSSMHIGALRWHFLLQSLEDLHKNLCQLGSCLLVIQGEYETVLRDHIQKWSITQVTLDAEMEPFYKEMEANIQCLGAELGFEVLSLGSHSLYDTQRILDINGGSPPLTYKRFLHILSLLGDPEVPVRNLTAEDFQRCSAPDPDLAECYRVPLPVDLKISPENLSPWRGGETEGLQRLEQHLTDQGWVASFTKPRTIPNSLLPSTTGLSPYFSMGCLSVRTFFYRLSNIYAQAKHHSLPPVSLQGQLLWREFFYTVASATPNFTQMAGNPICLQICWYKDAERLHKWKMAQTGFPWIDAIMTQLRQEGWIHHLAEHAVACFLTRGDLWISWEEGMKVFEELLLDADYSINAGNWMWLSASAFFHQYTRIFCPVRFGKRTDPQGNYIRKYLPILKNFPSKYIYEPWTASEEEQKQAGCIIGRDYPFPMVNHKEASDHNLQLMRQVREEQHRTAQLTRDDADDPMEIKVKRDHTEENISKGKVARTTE

[2] = target: T2, European robin Cryptochrome 4a (ErCry4a) (Erithacus rubecula, UniProt A0A2I4SZI9); experiment: as above; assay type: binding; conditions: co-purified FAD, noncovalent; 20 uM protein, 150 mM ammonium acetate, pH 8
T2 construct: anion exchange purified; monomer with minor dimer
T2 sequence (A0A2I4SZI9 entry or part of it): as the sequence (A0A2I4SZI9 entry or part of it R356E) above, with E356R counted along it

## Cc1cc2nc3c(=O)[nH]c(=O)nc-3n(C[C@H](O)[C@H](O)[C@H](O)COP(=O)(O)OP(=O)(O)OC[C@H]3O[C@@H](n4cnc5c(N)ncnc54)[C@H](O)[C@@H]3O)c2cc1C [flavin adenine dinucleotide]
[1]
  native electrospray mass spectrometry; UV-vis absorption: The R356E mutant is detected exclusively without FAD
[2]
  % of protein with FAD bound: 94%
